System: Saccharomyces cerevisiae ABC16-Green Monster
Test: growth inhibition at single dose (up to 150 µM), below the 70% cut-off for dose-response; higher = more potent
Conditions: 18 h; 30 °C; YPD
Outline: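 Percent growth inhibition is the reported value. Drug-sensitive S. cerevisiae ABC16-Green Monster cultures in log phase (OD600 0.1–0.2), 200 µl per well in 96-well plates, received each library compound once at 150 µM in biological duplicates, with untreated cultures run alongside. Growth was followed by OD600 at 0 h and after 18 h at 30 °C. Dose-response was not done for compounds below 70% in both replicates.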

SMILES	growth inhibition at single dose
COc1ccc(NC(=O)c2ccn[nH]2)cc1NC(=O)c1ccc(Cl)cc1F	< 70%
O=C1N=C(Nc2cccnc2)S/C1=C/c1ccc2ncccc2c1	< 70%
OC(CNC1CCCCC1)Cn1c2ccccc2c2ccccc21 (stereo not drawn)	< 70%
CC1CC(C)CN(C(=O)c2ccc(Cl)cc2Cl)C1 (stereo not drawn)	< 70%
CC(C)(C)c1cc(NC(=O)COc2ccc3[nH]c4ccccc4c(=O)c3c2)n(-c2ccccc2)n1	< 70%
C=CCn1c(C)cc(C(=O)CNC(=O)Nc2ccccc2)c1C	< 70%
O=C(Nc1ccccc1O)c1ccc(-c2ccc(Cl)cc2Cl)o1	< 70%
COc1ccc(-c2c(C)nn3c(N)c(C#N)cnc23)cc1OC	< 70%
CC(=O)NCC1CN(c2ccc(-c3ccc(CO)cc3)c(F)c2)C(=O)O1 (stereo not drawn)	< 70%
Cc1ccc(/C(C#N)=C/c2ccc(N(C)C)cc2)cc1	< 70%
CC(=O)c1ccc(NC(=O)CSc2nc(-c3ccccc3Cl)ns2)cc1	< 70%
COc1cc2c3cc1Oc1c(OC)c(OC)cc4c1C(Cc1ccc(O)c(c1)Oc1ccc(cc1)CC3N(C)CC2)N(C)CC4 (stereo not drawn)	< 70%
COc1ccc(C)c2sc(N(Cc3cccnc3)C(=O)c3ccc(C#N)cc3)nc12	< 70%
Cc1cccc(-c2nnc(Sc3nc(C)nc4sc5c(c34)CCCC5)n2CC(N)=O)c1	< 70%
CCN1CCN(c2c(C(=O)c3ccccc3)cnc3cc(OC)c(OC)cc23)CC1	< 70%
Cc1ccc(Nc2nc(N)c3ccccc3n2)cc1Cl	< 70%
Cc1cc(C)c2c(c1)OCN(Cc1ccccc1Cl)C2	< 70%
CC(C)(C)n1nc(Cc2ccc(F)c(Cl)c2)c2c(N)ncnc21	< 70%
C=CCn1c(SCc2c(C)noc2C)nc2scc(C3CC3)c2c1=O	< 70%
CCN(CC)S(=O)(=O)c1ccc(C(C)NC(=O)c2nn(CC)c(=O)c3ccccc23)cc1 (stereo not drawn)	< 70%
CCc1cc(=O)n(C)c(SC(C)C(=O)Nc2ccc(F)cc2)n1 (stereo not drawn)	< 70%

SMILES	growth inhibition at single dose
CC1CC(C)C[N+](=C2C=C(N3CCCC3)CC(C)(C)C2)C1 (stereo not drawn)	< 70%
COc1cc(Nc2ncnc3ccsc23)cc(OC)c1	< 70%
Cc1cc(C(=O)Oc2ccccc2C(N)=O)c(C)n1Cc1ccco1	< 70%
Cc1ccc(NS(=O)(=O)c2ccc(C(=O)Nc3ncccc3O)cc2)cc1	< 70%
COc1ccc(C2(C(=O)Nc3ccc(Br)cc3)CCCC2)cc1	< 70%
COc1ccc2nc(C)cc(OCC(=O)NCc3ccccc3)c2c1	< 70%
CCN(CC)c1ccc(NC(=O)c2cccs2)cc1	< 70%
CSc1nc(=O)nc(-c2ccc(Cl)cc2)[nH]1	< 70%
Clc1ccc2[nH]c3c(NCCCN4CCOCC4)ncnc3c2c1	< 70%
O=C(CCc1ccco1)NC1CCN(CC2(c3ccc(Cl)cc3)CCC2)CC1	< 70%
CCOC(=O)c1ccc2nc(-c3ccccc3)cc(O)c2c1	< 70%
Cc1ccc(NC(=O)c2cc3c(s2)CCCCCC3)nc1	< 70%
CN(C)c1ccc(C(=O)Nc2cnc3ccccc3c2)cc1	< 70%
CC1CCCCN1C(=O)NCCc1coc(-c2ccc(F)cc2)n1 (stereo not drawn)	< 70%
Cn1nnnc1SCC(=O)Nc1ccc(C(=O)Nc2ncccc2O)cc1	< 70%
COc1ccc(Nc2cc(C)nc(NCc3ccccc3)n2)cc1	< 70%
COc1ccc(-c2cc(NC(=O)c3ccc(F)cc3Cl)ccc2OC)cc1	< 70%
Cc1cccc(NC(=O)CN2C(=O)/C(=C(/C#N)c3nc4ccccc4[nH]3)c3ccccc32)c1	< 70%
CC1CS(=O)(=O)CCN1/N=C/c1ccc([N+](=O)[O-])o1 (stereo not drawn)	< 70%
OC(CNCc1ccccc1)Cn1c2ccccc2c2ccccc21 (stereo not drawn)	< 70%
CCc1nc2ccccc2n1CC(O)COc1cc(C)ccc1Cl (stereo not drawn)	< 70%

SMILES	growth inhibition at single dose
CCOC(=O)c1c(C)[nH]c(C(=O)CSc2nnc(C3CC3)n2N)c1C	< 70%
CC(=O)NCC1CN(c2ccc(-c3ccc(CNCc4cn[nH]n4)cc3)c(F)c2)C(=O)O1 (stereo not drawn)	< 70%
CCOC(=O)C1(Cc2ccccc2)CCN(Cc2cccc(OC)c2O)CC1	< 70%
CCOC(=O)c1cnc2ccc(Cl)cc2c1NCCCN(C)C	< 70%
OC(Cn1nnc2ccccc21)Cn1c2ccc(Br)cc2c2cc(Br)ccc21 (stereo not drawn)	< 70%
COc1cccc(-c2csc(-c3nnc4n3-c3ccccc3SC4)n2)c1	< 70%
c1ccc2c(c1)[nH]c1nc(SCc3cn4ccsc4n3)nnc12	< 70%
Cc1cc(NC(=O)C(C)(C)C)sc1C(=O)Nc1ccccc1O	< 70%
CN1c2ccccc2N(C)C1c1ccc2c(c1)OCO2	< 70%
Oc1ccc(Br)cc1CN1CCN(Cc2ccc(Cl)cc2)CC1	< 70%
CC(=O)c1c(C)[nH]c(C(=O)Nc2ccc3ccccc3n2)c1C	< 70%
CCOc1c(Br)cc(C2C(C(=O)OC)=CN(C)C=C2C(=O)OC)cc1OC	< 70%
COC(=O)c1ccccc1NC(=O)/C=C/c1ccc(N2CCCS2(=O)=O)cc1	< 70%
O=C1Nc2ccc(Br)cc2C12NCCc1c2[nH]c2ccccc12 (stereo not drawn)	< 70%
CC(C)C(Oc1cccc2ccccc12)C(=O)O (stereo not drawn)	< 70%
COc1cc(/C=N/NC(=O)c2ccccc2NS(=O)(=O)c2cccs2)ccc1OCCC(C)C	< 70%
N=C(N)c1ccc(-c2cc(-c3ccccc3)on2)cc1	< 70%
c1nc(NCc2ccc(CN3CCOCC3)cc2)c2sccc2n1	< 70%
COc1ccc(Nc2ccccc2NC(=O)c2ccc(O)nc2)cc1	< 70%
CNC(=O)c1ccc2n1CCN(C(=O)OCc1ccccc1)C2C (stereo not drawn)	< 70%
CCOC(=O)c1cnc2ccc(OC)cc2c1NCc1ccccc1	< 70%

SMILES	growth inhibition at single dose
O=C(Nc1ncc(Cc2ccc(Br)cc2)s1)c1ccc2n[nH]nc2c1	< 70%
COc1cncc(-c2cncc(N3CCN(c4ccncc4)CC3)n2)c1	< 70%
CC(C)(C)c1cc(C(=O)N2CCN(c3nccnc3C#N)CC2)n(Cc2ccccc2)n1	< 70%
Nc1ncc(-c2ccc(C(F)(F)F)nc2)cc1-c1ccc(C(F)(F)F)nc1	< 70%
O=[N+]([O-])c1cn2c(n1)OC[C@@H](OCc1ccc(OC(F)(F)F)cc1)C2	< 70%
NCCC(O)C(=O)N[C@@H]1C[C@H](N)[C@@H](OC2O[C@H](CN)[C@@H](O)[C@H](O)[C@H]2O)[C@H](O)C1OC1O[C@H](CO)[C@@H](O)[C@H](N)[C@H]1O (stereo partly drawn)	< 70%
CS(=O)(=O)c1cccc(-c2cnc3[nH]cc(-c4ccc(CCC(=O)O)cc4)c3c2)c1	< 70%
Cc1cc(NC(=O)c2ccc(Oc3ccc(Cl)cc3O)o2)no1	< 70%
O/N=C1/c2ccccc2-c2nnc(-c3cccc(OC(F)(F)F)c3)cc21	< 70%
O=C(NCCN1CCCC1)c1cc(NCCCCN2CCC(F)(F)CC2)nc2ccc(Cl)cc12	< 70%
CC(Oc1ccc(Cl)cc1)C(=O)Nc1sccc1C(N)=O (stereo not drawn)	< 70%
Cc1cc(C2=NOC(c3cc(Cl)c(F)c(Cl)c3)(C(F)(F)F)C2)ccc1C(=O)NCc1ccc2c(c1)C(C)(C)OB2O (stereo not drawn)	< 70%
Cc1c(C)n(CC(O)CNC2CCCCC2C)c2ccccc12 (stereo not drawn)	< 70%
CC(C)Cn1c(N)c(C(=O)CSc2nnc(COc3ccccc3Cl)o2)c(=O)n(C)c1=O	< 70%
O=C(NC1CCN(c2ccnc3ccccc23)C1)c1cccc(C(F)(F)F)c1 (stereo not drawn)	< 70%
Cc1cc(=O)n2nc(-c3ccc(C(C)(C)C)cc3)cc2[nH]1	< 70%
CCN(CC)CCn1c(NC(=O)c2cnc3c(cnn3C(C)C)c2)nc2ccccc21	< 70%
Clc1ccc(CN2CCN(C3=NCCN3)CC2)cc1Cl	< 70%
COc1ccc(C(=O)Nc2ccc(Cl)cc2C(=O)Nc2ccncc2)cc1	< 70%
O=C1c2ccc3c4c(ccc(c24)C(=O)N1CCCCO)C(=O)N(CCCCO)C3=O	< 70%
